Experimental data published in patent publication US6608048B2, “Tricyclic protein kinase inhibitors” (Wyeth Holdings, priority 2000, dated 2003).

What was measured:
[1] = target: T1, EGF-R Kinase (recombinant enzyme) (Homo sapiens, UniProt P00533); experiment: Inhibition of Epidermal Growth Factor Receptor Kinase (EGF-R) using recombinant enzyme; type: biochemical; settings: RR-SRC peptide substrate
T1 construct: containing the EGFR cDNA encoding amino acids 645-1186 preceded by Met-Ala-(Ris)6; made in house; host or cells: Sf9 insect cells, recombinant baculovirus vHcEGFR52
Method: Representative test compounds were evaluated for their ability to inhibit the phosphorylation of the tyrosine residue of a peptide substrate catalyzed by the enzyme epidermal growth factor receptor kinase. […] The enzyme used in this assay is the His-tagged cytoplasmic domain of EGFR. […] A cytoplasmic extract was prepared using 1% Triton X-100 and applied to Ni-NTA column.
Test compounds were made into 10 mg/mL stock solutions in 100% dimethylsulfoxide (DMSO).
The IC50 is the concentration of test compound needed to reduce the total amount of phosphorylated substrate by 50%. The % inhibition of the test compound was determined for at least three different concentrations and the IC50 value was evaluated from the dose response curve.
CPM(control) is in units of counts per minute and was a number expressing the amount of radiolabeled ATP (γ-^33P) incorporated into the RR-SRC peptide substrate by the enzyme after 90 minutes at room temperature in the absence of test compound as measured by liquid scintillation counting. The CPM values were corrected for the background counts produced by ATP in the absence of the enzymatic reaction.

[2] = system: Human epidermoid tumors (A431); experiment: In vivo inhibition of the growth of human epidermoid tumors (A431); settings: for S/T (# of Survivors/# of Treated): Day +21 post tumor staging
Method: BALB/c nu/nu female mice (Charles River, Wilmington, Mass.) were used in the in vivo standard pharmacological test procedures. Human epidermoid carcinoma cells A-431 (American Type Culture Collection, Rockville, Md. #CRL-155) were grown in vitro as described above. A unit of 5×10^6 cells were injected subcutaneously into mice. When tumors attained a mass of between 100 and 150 mg, the mice were randomized into treatment groups (day zero). Mice were treated orally (PO) once a day on days 1 through 10 post staging with doses of either 40, 20, 10, 3 or 1 mg/kg/dose of the compound to be evaluated in 0.2% Klucel. Control animals received no drug. Tumor mass was determined every 7 days [(length×width^2)/2] for 28 days post staging. Relative tumor growth (Mean tumor mass on day 7, 14, and 21 divided by the mean tumor mass on day zero) is determined for each treatment group. The % T/C (Tumor/Control) is determined by dividing the relative tumor growth of the treated group by the relative tumor growth of the placebo group and multiplying by 100. A compound is considered to be active if the % T/C is found to be=42%.

T1 sequence (P00533 669-1210): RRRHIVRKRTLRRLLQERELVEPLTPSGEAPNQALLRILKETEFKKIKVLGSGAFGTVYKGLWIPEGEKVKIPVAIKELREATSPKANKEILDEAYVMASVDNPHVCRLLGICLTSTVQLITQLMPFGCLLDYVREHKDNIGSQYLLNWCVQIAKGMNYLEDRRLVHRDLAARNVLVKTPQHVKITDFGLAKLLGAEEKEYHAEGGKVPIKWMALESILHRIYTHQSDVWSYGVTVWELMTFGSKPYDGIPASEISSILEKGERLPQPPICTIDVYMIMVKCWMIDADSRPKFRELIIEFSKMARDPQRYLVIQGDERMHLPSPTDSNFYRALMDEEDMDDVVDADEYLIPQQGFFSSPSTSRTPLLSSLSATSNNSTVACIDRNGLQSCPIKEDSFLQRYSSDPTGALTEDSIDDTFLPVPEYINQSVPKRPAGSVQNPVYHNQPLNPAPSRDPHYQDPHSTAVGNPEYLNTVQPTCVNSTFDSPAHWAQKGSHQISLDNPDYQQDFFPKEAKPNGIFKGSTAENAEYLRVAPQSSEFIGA

## CN(C)CCCC(=O)N1CCOc2cc3ncc(C#N)c(Nc4ccc(F)c(Cl)c4)c3cc21 [Example 10, 9-(3-Chloro-4-fluoroanilino)-1-[4-(dimethylamino)butanoyl]-2,3-dihydro-1H-[1,4]oxazino[3,2-g]quinoline-8-carbonitrile]
[1]
  IC50: 200 nM
other
  melting point: 165 °C

## N#Cc1cnc2cc3c(cc2c1Nc1ccc(Cl)cc1Cl)OCCN3 [Example 22, 9-(2,4-Dichloroanilino)-3,4-dihydro-2H-[1,4]oxazino[2,3-g]quinoline-8-carbonitrile]
other
  melting point: 254 to 255 °C

## CN(C)CCCCN1CCOc2cc3ncc(C#N)c(Nc4ccc(F)c(Cl)c4)c3cc21 [Example 12, 9-(3-Chloro-4-fluoroanilino)-1-[4-(dimethylamino)butyl]-2,3-dihydro-1H-[1,4]oxazino[3,2-g]quinoline-8-carbonitrile]
[1]
  IC50: 5 nM
other
  melting point: 105 °C

## N#Cc1cnc2cc3c(cc2c1Nc1ccc(F)c(Cl)c1)N(CCCCCl)CCO3 [Example 11, 1-(4-Chlorobutyl)-9-(3-chloro-4-fluoroanilino)-2,3-dihydro-1H-[1,4]oxazino[3,2-g]quinoline-8-carbonitrile]
other
  melting point: 78 to 79 °C

## N#Cc1cnc2cc3c(cc2c1Nc1ccc(F)c(Cl)c1)NCCO3 [Example 7, 9-(3-Chloro-4-fluoroanilino)-2,3-dihydro-1H-[1,4]oxazino[3,2-g]quinoline-8-carbonitrile]
other
  melting point: 244 to 245 °C

## CN(C)C/C=C/C(=O)N1CCOc2cc3ncc(C#N)c(Nc4ccc(F)c(Cl)c4)c3cc21 [Example 9, 9-(3-Chloro-4-fluoroanilino)-1-[(2E)-4-(dimethylamino)-2-butenoyl]-2,3-dihydro-1H-[1,4]oxazino[3,2-g]quinoline-8-carbonitrile]
[2]; 1 mg/kg/dose PO, days 1 through 10
  S/T (# of Survivors/# of Treated): 5/5
[2]; 3 mg/kg/dose PO, days 1 through 10
  S/T (# of Survivors/# of Treated): 5/5
[2]; 10 mg/kg/dose PO, days 1 through 10, Day 21
  RTG (relative tumor growth) Day 21: 11.09
[2]; 10 mg/kg/dose PO, days 1 through 10
  S/T (# of Survivors/# of Treated): 5/5
[2]; 20 mg/kg/dose PO, days 1 through 10
  S/T (# of Survivors/# of Treated): 5/5
[2]; 40 mg/kg/dose PO, days 1 through 10
  S/T (# of Survivors/# of Treated): 5/5
[2]; A431 tumors in mice, PO
  inhibition of tumor growth in vivo (in words): effective inhibitor of tumor growth in vivo

## CCN1CCN(CCCCN2CCOc3cc4c(Nc5ccc(Cl)cc5Cl)c(C#N)cnc4cc32)CC1 [Example 24, 9-(2,4-Dichloroanilino)-4-[4-(4-ethyl-1-piperazinyl)butyl]-3,4-dihydio-2H-[1,4]oxazino[2,3-g]quinoline-8-carbonitrile]
other
  melting point: 97 to 98 °C
